Earlier results in US10722577B2, “Methods for treating GI syndrome and graft versus host disease” (Sloan Kettering Institute for Cancer Research, priority 2012, dated 2020).

Test system: in vitro models of GvHD
Conditions: previous work, U.S. Ser. No. 12/599,280; cited from earlier work

In the case of `C[C@@H]1[C@H](O)[C@@H](C)/C=C/C=C/CC/C=C/C=C/C=C/C=C/C(O[C@H]2O[C@H](C)[C@@H](O)[C@H](N)[C@@H]2O)CC2O[C@](O)(CC(O)C(O)CCC(O)CC(O)CC(O)CC(=O)O[C@H]1C)CC(O)C2C(=O)O` (stereo partly shown) [nystatin], the “apoptosis in in vitro models of GvHD” value is listed as “beneficial effects in reducing apoptosis”.
